# According to ChEMBL document CHEMBL1124317, “Rationale for the synthesis and preliminary biological evaluation of highly active new antitumor nitrosoureido sugars” (J Med Chem, 1989):
# Key:
# Mus musculus [1] = test: The number of L1210 leukemia mice survived after 30 days with compound in aqueous solution injected by a dose of 5 mg/kg intraperitoneally; 6/10; type: functional; conditions: route intraperitoneal
# Mus musculus [2] = test: The number of L1210 leukemia mice survived after 60 days with compound in aqueous solution injected by a dose of 5 mg/kg intraperitoneally; 6/10; type: functional; conditions: route intraperitoneal
# Mus musculus [3] = species on record: Mus musculus; test: Median survival time of the non surviving mice; there are single deaths on day 20, day 21, day 22, and day 25; four deaths occurred; type: functional, organism-based
# [4] = Number of mice died/no of mice treated with 5 mg/kg of compound in aqueous solution intraperitoneally with L1210 leukemia; 0/10; type: functional; conditions: route intraperitoneal
# Mus musculus [5] = test: The number of L1210 Leukemia mice survived after 30 days with compound in olive oil injected by a dose of 20 mg/kg intraperitoneally; 4/15; type: functional; conditions: route intraperitoneal
# Mus musculus [6] = test: The number of B16 melanocarcinoma mice survived after 30 days with compound in olive oil injected by a dose of 20 mg/kg intraperitoneally; 9/20; type: functional; conditions: route intraperitoneal
# Mus musculus [7] = test: The number of B16 melanocarcinoma mice survived after 60 days with compound in olive oil injected by a dose of 20 mg/kg intraperitoneally; 1/20; type: functional; conditions: route intraperitoneal
# Mus musculus [8] = test: Anti tumor activity in olive oil when treated to mice with B16 melanocarcinoma with 20 mg/kg dose of compound intraperitoneally was expressed as percent of treated to control (T/C %); type: functional; conditions: route intraperitoneal
# Mus musculus [9] = test: Anti tumor activity in olive oil when treated to mice with L1210 leukemia with 20 mg/kg dose of compound intraperitoneally was expressed as percent of treated to control (T/C %); type: functional; conditions: route intraperitoneal
# Mus musculus [10] = test: The number of Lewis lung mice survived after 30 days with compound in olive oil injected by a dose of 20 mg/kg intraperitoneally; 13/20; type: functional; conditions: route intraperitoneal
# Mus musculus [11] = test: Anti tumor activity in olive oil when treated to mice with Lewis lung with 20 mg/kg dose of compound intraperitoneally was expressed as percent of treated to control (T/C %); type: functional; conditions: route intraperitoneal
# Mus musculus [12] = test: The number of L1210 Leukemia mice survived after 60 days with compound in olive oil injected by a dose of 20 mg/kg intraperitoneally; 3/15; type: functional; conditions: route intraperitoneal
# Mus musculus [13] = test: Median survival time of the non surviving mice; treated with 20 mg/kg of compound in olive oil to mice with B16 Melanocarcinoma; 23-45; type: functional
# Mus musculus [14] = test: Median survival time of the non surviving mice; treated with 20 mg/kg of compound in olive oil to mice with L1210 leukemia tumor; 21-42; type: functional
# Mus musculus [15] = test: Median survival time of the non surviving mice; treated with 20 mg/kg of compound in olive oil to mice with Lewis lung; 21-41; type: functional
# Mus musculus [16] = test: The number of Lewis lung mice survived after 60 days with compound in olive oil injected by a dose of 20 mg/kg intraperitoneally; 8/20; type: functional; conditions: route intraperitoneal
# [17] = Ratio of mice died to that of mice treated with 20 mg/kg of compound in olive oil intraperitoneally with B16 Melanocarcinoma; 0/20; type: functional; conditions: route intraperitoneal
# [18] = Ratio of mice died to that of mice treated with 20 mg/kg of compound in olive oil intraperitoneally with L1210 leukemia tumor; 0/15; type: functional; conditions: route intraperitoneal
# [19] = Ratio of mice died to that of mice treated with 20 mg/kg of compound in olive oil intraperitoneally with Lewis lung; 0/20; type: functional; conditions: route intraperitoneal
# Mus musculus [20] = test: The number of L1210 Leukemia mice survived after 30 days with compound in olive oil injected by a dose of 20 mg/kg intraperitoneally; 15/15; type: functional; conditions: route intraperitoneal
# Mus musculus [21] = test: The number of B16 melanocarcinoma mice survived after 30 days with compound in olive oil injected by a dose of 20 mg/kg intraperitoneally; 14/20; type: functional; conditions: route intraperitoneal
# Mus musculus [22] = test: The number of L1210 leukemia mice survived after 60 days with compound in aqueous solution injected by a dose of 20 mg/kg intraperitoneally; 0/10; type: functional; conditions: route intraperitoneal
# Mus musculus [23] = test: Anti tumor activity in olive oil when treated to mice with B16 melanocarcinoma with 5 mg/kg dose of compound intraperitoneally was expressed as percent of treated to control (T/C %); type: functional; conditions: route intraperitoneal
# Mus musculus [24] = test: Anti tumor activity in olive oil when treated to mice with L1210 leukemia with 5 mg/kg dose of compound intraperitoneally was expressed as percent of treated to control; type: functional; conditions: route intraperitoneal
# Mus musculus [25] = test: Median survival time of the non surviving mice; treated with 5 mg/kg of compound in olive oil to mice with B16 Melanocarcinoma; 13-51; type: functional
# Mus musculus [26] = test: Median survival time of the non surviving mice; treated with 5 mg/kg of compound in olive oil to mice with L1210 leukemia and the value is mentioned in braces is range; type: functional
# Mus musculus [27] = test: The number of Lewis lung mice survived after 30 days with compound in olive oil injected by a dose of 20 mg/kg intraperitoneally; 20/20; type: functional; conditions: route intraperitoneal
# Mus musculus [28] = test: The number of Lewis lung mice survived after 60 days with compound in olive oil injected by a dose of 20 mg/kg intraperitoneally; 15/20; type: functional; conditions: route intraperitoneal
# Mus musculus [29] = test: The number of L1210 Leukemia mice survived after 60 days with compound in olive oil injected by a dose of 20 mg/kg intraperitoneally; 15/15; type: functional; conditions: route intraperitoneal
# Mus musculus [30] = test: The number of L1210 leukemia mice survived after 30 days with compound in aqueous solution injected by a dose of 20 mg/kg intraperitoneally; 0/10; type: functional; conditions: route intraperitoneal
# [31] = Ratio of mice died to that of mice treated with 20 mg/kg of compound in aqueous solution intraperitoneally with L1210 leukemia; 0/10; type: functional; conditions: route intraperitoneal
compound,measurement,setting,value
CO[C@H]1C[C@@H](NC(=O)N(CCCl)N=O)[C@H](O)[C@@H](CO)O1,Survivals,Mus musculus [1],6
same,Survivals,Mus musculus [2],6
same,Number of deaths,Mus musculus [3],4
same,Ratio,[4],0
COC1CC(O)C(O)C(CNC(=O)N(CCCl)N=O)O1 (stereo not given),Survivals,Mus musculus [5],4
same,Survivals,Mus musculus [6],9
same,Survivals,Mus musculus [7],1
same,T/C,Mus musculus [8],215%
same,T/C,Mus musculus [9],263%
same,Survivals,Mus musculus [10],13
same,T/C,Mus musculus [11],313%
same,Survivals,Mus musculus [12],3
same,Median survival time,Mus musculus [13],30
same,Median survival time,Mus musculus [14],23.5
same,Median survival time,Mus musculus [15],39
same,Survivals,Mus musculus [16],8
same,Ratio,[17],0
same,Ratio,[18],0
same,Ratio,[19],0
CO[C@@H]1C[C@@H](NC(=O)N(CCCl)N=O)[C@H](O)[C@@H](C)O1,Survivals,Mus musculus [20],15
same,Survivals,Mus musculus [21],14
same,Survivals,Mus musculus [7],1
same,Survivals,Mus musculus [22],0
same,T/C,Mus musculus [23],260%
same,T/C,Mus musculus [24],150%
same,Median survival time,Mus musculus [25],36.25
same,Median survival time,Mus musculus [26],14.2
same,Survivals,Mus musculus [27],20
same,Survivals,Mus musculus [28],15
same,Survivals,Mus musculus [29],15
same,Survivals,Mus musculus [30],0
same,Ratio,[31],0
same,Ratio,[17],0
same,Ratio,[18],0
same,Ratio,[19],0
